Results reported in patent US6248309A, “Gums containing antimicrobial agents” (priority 1999, dated 2001).

Key:
[1] = test system: Actinomyces viscosus (AV); experiment: MIC of agents alone and in two-agent combination (Example 1); type: cell-based, Actinomyces viscosus ATCC 19246; conditions: concentration of chloramphenicol (agent A)
Method: (§1) The following example illustrates how the MIC of individual antimicrobial agents that are combined were determined and also illustrates how the MIC of the antimicrobial agents in combination were determined.
(§2) A microtiter plate was used to dilute the antimicrobial agents to varying concentrations in order to determine the MIC of those antimicrobial agents alone and the MIC of the agents when combined.
(§3) A bacterial culture was incubated at 37° C. Prior to the dilution of the antimicrobial agents as described below, the bacterial culture was spun down at 2,000 rpm into a pellet and resuspended in a solution of buffered phosphate. The innoculum was normalized with a spectrophotometer to an optical density at 550 nanometers of between 0.180-0.220 (equivalent to 5.0×10^7 colony forming units, CFU per milliliter). The innoculum was set aside until the completion of the antimicrobial agent dilution. […]
(§4) Following 48 hours of incubation, the incubated plate was read for microbial growth with a spectrophotometer by optical density (OD). The well containing the lowest dilution achievable for each agent with a spectrophotometer reading below 0.05 OD (i.e., no detectable microbial growth) was considered representative for the combination. The MIC for each agent in the combination was determined by accounting for the starting stock solution concentration and the resulting dilutions in the 96-well plate. […]

[2] = test system: Fusobacterium nucleatum (FN); experiment: as above; type: cell-based, Fusobacterium nucleatum ATCC 10933; conditions: concentration of chloramphenicol (agent A)
Method: as §1, §2, §3, §4

[3] = test system: Porphyromonas gingivalis (PG); experiment: as above; type: cell-based, Porphyromonas gingivalis ATCC 33277; conditions: concentration of chloramphenicol (agent A)
Method: as §1, §2, §3, §4

[4] = test system: Streptococcus mutans (SM); experiment: as above; type: cell-based, Streptococcus mutans ATCC 25175; conditions: concentration of chloramphenicol (agent A)
Method: as §1, §2, §3, §4

[5] = test system: Streptococcus sanguis (SS); experiment: as above; type: cell-based, Streptococcus sanguis ATCC 49295; conditions: concentration of chloramphenicol (agent A)
Method: as §1, §2, §3, §4

[6] = test system: Actinomyces viscosus (AV); experiment: MIC of individual antimicrobial agents (Example 4); type: cell-based, Actinomyces viscosus ATCC 19246; conditions: Table 18
From the text: (§5) The following example illustrates how antimicrobial agents useful in gum compositions of the present invention retard or prevent the growth of dental plaque bacteria present in the oral cavity. In addition, the example illustrates the lowest concentration of various antimicrobial agents that will inhibit visible in vitro growth of a particular bacteria.
(§6) The assay used a microtiter plate to dilute the antimicrobial agent to varying concentrations in order to determine the MIC.
(§7) A bacteria culture was incubated overnight at 37° C. Prior to dilution of the antimicrobial agents as described below, the bacterial culture was spun down at 2000 rpm into a pellet and resuspended in a solution of buffered phosphate. […]
as §4, with “The 96-well plate was incubated under conditions that varied depending on the particular microorganism. […] Following” for “Following”, “spectraphotometer” for “spectrophotometer”, “achievable” for “achievable for each agent”, “antimicrobial agent.” for “combination.”, “the” for “each”, “agent” for “agent in the combination”

[7] = test system: Fusobacterium nucleatum (FN); experiment: MIC of individual antimicrobial agents (Example 4); type: cell-based, Fusobacterium nucleatum ATCC 10933; conditions: Table 18
From the text: as §5, §6, §7
as §4, with “The 96-well plate was incubated under conditions that varied depending on the particular microorganism. […] Following” for “Following”, “spectraphotometer” for “spectrophotometer”, “achievable” for “achievable for each agent”, “antimicrobial agent.” for “combination.”, “the” for “each”, “agent” for “agent in the combination”

[8] = test system: Porphyromonas gingivalis (PG); experiment: MIC of individual antimicrobial agents (Example 4); type: cell-based, Porphyromonas gingivalis ATCC 33277; conditions: Table 18
From the text: as §5, §6, §7
as §4, with “The 96-well plate was incubated under conditions that varied depending on the particular microorganism. […] Following” for “Following”, “spectraphotometer” for “spectrophotometer”, “achievable” for “achievable for each agent”, “antimicrobial agent.” for “combination.”, “the” for “each”, “agent” for “agent in the combination”

[9] = test system: Streptococcus mutans (SM); experiment: MIC of individual antimicrobial agents (Example 4); type: cell-based, Streptococcus mutans ATCC 25175; conditions: Table 18
From the text: as §5, §6, §7
as §4, with “The 96-well plate was incubated under conditions that varied depending on the particular microorganism. […] Following” for “Following”, “spectraphotometer” for “spectrophotometer”, “achievable” for “achievable for each agent”, “antimicrobial agent.” for “combination.”, “the” for “each”, “agent” for “agent in the combination”

[10] = test system: Streptococcus sanguis (SS); experiment: MIC of individual antimicrobial agents (Example 4); type: cell-based, Streptococcus sanguis ATCC 49295; conditions: Table 18
From the text: as §5, §6, §7
as §4, with “The 96-well plate was incubated under conditions that varied depending on the particular microorganism. […] Following” for “Following”, “spectraphotometer” for “spectrophotometer”, “achievable” for “achievable for each agent”, “antimicrobial agent.” for “combination.”, “the” for “each”, “agent” for “agent in the combination”

O=C(NC(CO)C(O)c1ccc([N+](=O)[O-])cc1)C(Cl)Cl (stereo not shown) [CR1, 2,2-dichloro-N-[2-hydroxyl-1-(hydroxymethyl)-2-(4-nitrophenyl)ethyl]acetamide]
MIC of Chloramphenicol alone and when combined with Agent B [1]: 5.4 µg/mL | MIC of Chloramphenicol alone and when combined with Agent B [2]: 1.8 µg/mL | MIC of Chloramphenicol alone and when combined with Agent B [3]: 6.9 µg/mL | MIC of Chloramphenicol alone and when combined with Agent B [4]: 5.2 µg/mL | MIC of Chloramphenicol alone and when combined with Agent B [5]: 3.2 µg/mL | MIC [6]: 3.1 µg/mL | MIC [7]: 3.1 µg/mL | MIC [8]: 6.3 µg/mL | MIC [9]: 3.1 µg/mL | MIC [10]: 3.1 µg/mL
